Measured values from US20100190715A1, “Stable Formulations of Peptides” (Novo Nordisk A/S, priority 2003, published 2010).

What was measured:
[1] = ThT fluorescence assay of fibril formation (physical stability); type: physicochemical
Experimental: FIG. 1. ThT fluorescence assay of fibril formation in acylated GLP-1 samples. The samples contain 6 mg/ml acylated GLP-1, 5 μM ThT dissolved in water and adjusted to the stated pH. Experimental conditions are described in “Examples”. Briefly, the samples were incubated at 40° C. and shaken with 960 rpm in an Ascent Fluoroskan fluorescence plate reader. All data points are from the same experiment (i.e. all samples are from the same microtiterplate) and are means of eight replica and shown with standard deviations as error bars. Furthermore, these values at 20 and 40 hours are tabulated for each sample.
Low physical stability of a peptide may lead to amyloid fibril formation, which is observed as well-ordered, thread-like macromolecular structures in the sample eventually resulting in gel formation. This has traditionally been measured by visual inspection of the sample. However, that kind of measurement is very subjective and depending on the observer. Therefore, the application of a small molecule indicator probe is much more advantageous. Thioflavin T (ThT) is such a probe and has a distinct fluorescence signature when binding to fibrils [Naiki et al. (1989) Anal. Biochem. 177, 244-249; LeVine (1999) Methods. Enzymol. 309, 274-284].
The time course for fibril formation can be described by a sigmoidal curve with the following expression [Nielsen et al. (2001) Biochemistry 40, 6036-6046]:
Here, F is the ThT fluorescence at the time t (see FIG. 12). The constant t0 is the time needed to reach 50% of maximum fluorescence. The two important parameters describing fibril formation are the lag-time calculated by t0−2τ and the apparent rate constant kapp=1/τ.
Samples were prepared freshly before each assay. Usually, acylated GLP-1 was dissolved to 6 mg/ml in desired buffer or solvent. The pH of the sample was adjusted to the desired value using appropriate amounts of concentrated NaOH and HClO4. Thioflavin T was added to the samples from a 1 mM stock solution in H2O to a final concentration of 5 μM.
Sample aliquots of 100 μl were placed in a 96 well microtiter plate (Packard Opti-Plate™-96, white polystyrene). Usually, eight replica of each sample (corresponding to one test condition) was placed in one column of wells. The plate was sealed with Scotch Pad (Qiagen).
Incubation at given temperature, shaking and measurement of the ThT fluorescence emission were done in a Fluoroskan Ascent FL fluorescence platereader (Thermo Labsystems). Temperature setting is possible up till 45° C., but usually sat at 40° C. The orbital shaking is selectable up till 1200 rpm, but adjusted to 960 rpm with an amplitude of 1 mm in all the presented data. Fluorescence measurement was done using excitation through a 444 nm filter and measurement of emission through a 485 nm filter.
Each run was initiated by incubating the plate at the assay temperature for 10 min. The plate was measured each hour for typically 45 hours. Between each measurement, the plate was shaken and heated as adjusted.
The measurement points were saved in Microsoft Excel format for further processing and curve drawing and fitting was performed using GraphPad Prism. The background emission from ThT in the absence of fibrils was negligible. The data points are typically a mean of eight samples and shown with standard deviation error bars. Only data obtained in the same experiment (i.e. samples on the same plate) are presented in the same graph ensuring a relative measure of fibrillation between experiments.
The data set may be fitted to Eq. (1). However, since full sigmodial curves in this case are not usually achieved during the measurement time, the degree of fibrillation is expressed as ThT fluorescence at 20 and 40 hours, calculated as the mean of the eight samples and shown with the standard deviation.

[2] = Proton NMR spectroscopy of solvent and buffer effects on structure and dynamics in solution; type: physicochemical
Experimental: FIG. 10. Proton NMR spectrum of acylated GLP-1 with different additives at pH 7.9. N-terminal histidine signals of the imidazol sidechain are observed at approx 7.80 ppm and 7.00 ppm. The linewidth and position reflects the reduced flexibility of the N-terminal. NMR samples were prepared with 6 mg/ml acylated GLP-1 at pH 7.9 dissolved in 90%/10% H2O/D2O. NMR spectra were recorded at 600 MHz using a Varian Inova 600 MHz NMR instrument using 5 mm samples tubes. Sample volumes were 800 ul and spectra were measured at 27 degrees Celsius
FIG. 11. Amide protons of glu-9 (8.65 ppm) and gly-10 (8.42 ppm) under the same conditions as in FIG. 10. More intense amide proton signals reflect that these protons are relatively better shielded structurally from exchange with the water.
Proton NMR spectroscopy of proteins in solutions has become a powerful technique to study structure and dynamics of a pure protein in solution (Wüthrich, K, “NMR of Proteins and Nucleic Acids”, (1986), ISBN 0-471-82893-9). Each proton (or proton group) in a protein will give rise to a resonance peak at a frequency which depends on the chemical and physical environment in the vicinity of each proton (or proton group) in the protein. A skilled artisan in the field of protein NMR spectroscopy will be able to assign most of the resonance peaks of a proton NMR spectrum of a protein to specific protons (or proton groups) in the protein given that the actual behavior of the protein in solution give rise to a well resolved proton NMR spectrum (well known to the skilled artisan in the field). The line width of the resonance peaks in the protein NMR spectrum reflects to some extend the size and dynamic properties of the protein in solution.
Aqueous solution of acylated GLP-1 at concentrations between 1 and 30 mg/ml, with or without buffers in the pH range 7.0 to 8.2 give rise to NMR spectra that to a high extend allow the afore mentioned resonance assignment. Thus several resonances of the NMR spectrum of this peptide can be assigned to specific atomic groups in the peptide. Recording NMR spectra of acylated GLP-1 under the conditions mentioned above but with different buffer substances in the solution allows a direct comparison of the structural and dynamical changes that acylated GLP-1 undergo as different buffers are applied.

fibril formation ([1]; 8 mM phosphate, pH8.15): fibril formation is already observed | physical stability ([1]; 10 mM HEPES, pH gradually lowered from pH7.9 to pH7.51): slightly more physically unstable | physical stability ([1]; 10 mM His, lowering the pH): only marginally less stable | fibrillation ([1]; 10 mM NaCl added to solution in water pH 7.9): promotes fibrillation | physical stability ([1]; aqueous solution non buffered or buffered with HEPES or BICINE, versus 8 mM phosphate pH7.92): significantly more physically stable | tendency to fibril formation ([1]; phosphate lowered from 8 mM to 1 mM at pH7.9): Less tendency to fibril formation | fibrillation ([1]; water adjusted to pH7.85, incubated 45 hours): No significant fibrillation | fibrillation ([1]; water adjusted to pH8.14, incubated 45 hours): No significant fibrillation | physical stability ([1]; water at pH7.53): comparable with 8 mM phosphate pH7.88 | order and rigidity of the N-terminal ([2]; non buffered solution or buffered with HEPES, bicine or histidine, pH 7.9): more ordered and rigid
Substance: Arg^34, Lys^26(N^ε-(γ-Glu(N^α-hexadecanoyl)))-GLP-1(7-37) [acylated GLP-1]
fibrillation ([1]; 10 mM BICINE buffer): without significantly increasing the fibrillation compared to water at pH7.89 | fibrillation ([1]; 10 mM HEPES buffer): without significantly increasing the fibrillation compared to water at pH7.89 | physical stability ([1]; 10 mM HEPES pH7.73): as physically stable as in 8 mM phosphate pH8.15 | physical stability ([1]; 10 mM His, pH 7.5): much more physically stable than acylated GLP-1 in non buffered aqueous solution pH7.5 | physical stability ([1]; 10 mM His, pH7.9): same physical stability of acylated GLP-1 as obtained in water at pH7.9 | physical stability ([1]; 10 mM MOPS): more physical stable than a solution in 8 mM phosphate at pH8.14 | physical stability ([1]; 10 mM TES): more physical stable than a solution in 8 mM phosphate at pH8.14 | physical stability ([1]; dissolved in water rather than phosphate buffer (8 mM), 6 mg/ml, 40° C., 960 rpm): significant increase in physical stability | fibrillation lag-time ([1]; lowering pH in the interval pH 8.2 to pH 7.5, all examples): shorter and shorter fibrillation lag-times | amide proton resonances of glutamic acid residue 9 and glycine residue 10 ([2]; 8 mM phosphate at pH 7.9 compared to non-buffered, 6 mg/ml): almost disappearance of amides protons resonances | protection of amide protons of Glu 9 and Gly 10 from water ([2]; aqueous solution without buffer substance versus 8 mM phosphate buffer): relatively more protected from the water molecules | self-assembly in solution ([2]; concentration range 1 to 30 mg/ml): bundle up in assemblies with several but well defined and limited number of acylated GLP-1 molecules
